Patent publication US8501813B2, “γ-secretase inhibitor” (Kabushiki Kaisha Yakult Honsha, priority 2007, dated 2013)
Like-named read-outs stand apart in the source and are kept apart here.

Target: γ-secretase (Homo sapiens, UniProt P49768)
Experiment: Aβ secretion by C99 cells (HEK293 stably expressing APP-C99), γ-secretase inhibitory effect, Aβ ELISA of culture supernatant
Format: cell-based
Conditions: for activity at 0.3 µM / activity at 1 µM / activity at 3 µM / activity at 10 µM / activity at 0.03 µM / activity at 0.1 µM: HEK293, 24 h; for activity at 0.3 µM: exposure 0.3 μmol/L; for activity at 1 µM: exposure 1 μmol/L; for activity at 3 µM: exposure 3 μmol/L; for activity at 10 µM: exposure 10 μmol/L; for activity at 0.03 µM: exposure 0.03 μmol/L; for activity at 0.1 µM: exposure 0.1 μmol/L; for inhibition at 0.3 µM / inhibition at 10 µM: HEK293, read-out: Aβ40 inhibitory rate (in terms of the inhibitory rate, from secretion rate); for inhibition at 0.3 µM: exposure concentration 0.3 μM; for inhibition at 10 µM: exposure concentration 10 μM
Description: HEK293 cells (ATCC) were transfected with APP C99 pcDNA3.1 (the nucleotide sequence of its coding region is shown in SEQ ID NO: 1) (J. Biol. Chem., 2003, 278, 49448-49458). Cell strains (C99 cells) confirmed to stably express APP-C99 (artificial APP fragment that originally lacked a polypeptide portion to be cleaved by α- or β-secretase at the first stage in the two-stage reaction of Aβ production from APP) were used to study the γ-secretase inhibitory effects of four test substances (TLVM-5, TLVM-7, TLVM-8, and TLVM-9) in vitro.
In the present test, a medium used for the C99 cells was 500 mL of a Dulbecco's Modified Eagle's Medium (DMEM, Sigma-Aldrich Corp.) supplemented with 55 ml of fetal bovine serum (Biosource), 5.5 ml of MEM non-essential amino acids (Gibco), and 5.5 ml of penicillin/streptomycin (Gibco).
The C99 cells were suspended at a concentration of 5×10^4 cells/ml in the medium. The suspension was added at a concentration of 1 ml (5×10^4 cells)/well to a 24-well collagen plate (Akita Sumitomo Bakelite Co., Ltd.) and cultured for 3 days. Then, the medium in the wells was removed, and the wells were washed with a medium (1 ml/well). The medium was removed, and a fresh medium was then added thereto at a concentration of 0.4 ml/well. The cells were exposed to the test substances and positive controls and incubated for 24 hours, and the culture supernatants were collected. The positive controls used were L-685,458 (CALBIOCHEM) and Boc-Leu-Val-Met-Leu-OMe (hereinafter, referred to as LVML-1) disclosed in Example 1 of Patent Document 1 (WO03/091278). The exposure concentrations were set to four concentrations, 0.3, 1, 3, and 10 μmol/L, for all the test substances and the positive controls. The concentrations of Aβ (1-40) and Aβ (1-42) in the culture supernatants were measured using Human Amyloid β (1-40) (N) Assay Kit (L)-IBL and Human Amyloid β (1-42) (N) Assay Kit (L)-IBL (Immuno-Biological Laboratories, Co., Ltd.). The amounts of Aβ (1-40) and Aβ (1-42) secreted were calculated by subtracting the concentrations of Aβ (1-40) and Aβ (1-42) originally contained in the medium before the C99 cell inoculation, from the measured concentrations thereof, respectively. Moreover, when the Aβ secretion rate of a negative control (5% DMSO-containing medium, resulting in 1% DMSO at the final concentration) is defined as 100%, Aβ secretion rates at each concentration of the test substances and the positive controls were calculated.
The TLVM-5, TLVM-7, TLVM-8, and TLVM-9 confirmed in Example 8 to have strong inhibitory activities against γ-secretase activities were subjected to an additional experiment at low concentrations (exposure concentrations were set to three concentrations, […], for the test substances and to four concentrations, 0.1, 0.3, 1, and 3 μmol/L, for the positive control).
Moreover, Aβ secretion rates at two concentrations of the test substance that bracket the concentration at which Aβ secretion was inhibited by 50% (IC50) were used to calculate IC50 according to the following equation: IC50:10^[LOG(A/B)*(50−C)/(D−C)+LOG(B)],wherein
A: of the two points that bracket 50% inhibition, the higher concentration of the test substance,
B: of the two points that bracket 50% inhibition, the lower concentration of the test substance,
C: secretion rate (%) at the concentration B, and
D: secretion rate (%) at the concentration A.

[1] = Example 8, 24 h, read-out: Aβ [(1-40) + (1-42)] secretion rate of C99 cells
[2] = Example 8, 24 h, read-out: Aβ (1-40) secretion rate of C99 cells
[3] = Example 9 (low concentrations), read-out: Aβ (1-40) secretion rate of C99 cells
[4] = Example 9, read-out: Aβ (1-42) secretion rate of C99 cells
[5] = Example 9, read-out: Aβ [(1-40) + (1-42)] secretion rate of C99 cells
[6] = Example 9, read-out: Aβ (1-40) secretion rate of C99 cells
[7] = Example 8, 24 h, negative control = 100%, read-out: Aβ (1-40) secretion rate of C99 cells
[8] = Example 8, 24 h, read-out: Aβ (1-42) secretion rate of C99 cells

Work on CSCCC(NC(=O)C(NC(=O)C(CC(C)C)CC(O)C(NC(=O)OC(C)(C)C)C(C)O)C(C)C)C(=O)NCc1ccccc1 [TLVM-5, [5S-(tert-butoxycarbonylamino)-4R,6R-dihydroxy-2R-(2-methylpropyl)heptanoyl]-L-valyl-L-methionine benzylamide] yielded an activity at 0.3 µM [1] of 14%, an activity at 1 µM [2] of 5% and an activity at 1 µM [1] of 8%. For the same compound, the activity at 3 µM [2] was 4%, the activity at 3 µM [1] was 7% and the activity at 10 µM [2] was ≤ 3%. It also gave an activity at 10 µM [1] of 6%, an activity at 0.03 µM [3] of 100% and an activity at 0.03 µM [4] of 131%. For the same compound, the activity at 0.03 µM [5] was 101%, the activity at 0.1 µM [6] was 39% and the activity at 0.1 µM [4] was 74%. For the same compound, the activity at 0.1 µM [5] was 40%, the activity at 0.3 µM [6] was 15% and the activity at 0.3 µM [4] was 43%. The activity at 0.3 µM [5] was 16%, the inhibition at 0.3 µM was ≥ 76% and the inhibition at 10 µM was ≥ 97%.
With CCCCNC(=O)C(CCSC)NC(=O)C(NC(=O)C(CC(C)C)CC(O)C(NC(=O)OC(C)(C)C)C(C)O)C(C)C [TLVM-7, [5S-(tert-butoxycarbonylamino)-4R,6R-dihydroxy-2R-(2-methylpropyl)heptanoyl]-L-valyl-L-methionine n-butylamide] the activity at 0.3 µM [7] was ≤ 24%, the activity at 0.3 µM [8] was 15% and the activity at 0.3 µM [1] was 23%. The activity at 1 µM [2] was 8%, the activity at 1 µM [8] was 55% and the activity at 1 µM [1] was 10%. For the same compound, the activity at 3 µM [2] was 1%, the activity at 3 µM [8] was 67% and the activity at 3 µM [1] was 4%. For the same compound, the activity at 10 µM [2] was ≤ 3%, the activity at 10 µM [8] was 0% and the activity at 10 µM [1] was 2%. For the same compound, the activity at 0.03 µM [3] was 124%, the activity at 0.03 µM [4] was 156% and the activity at 0.03 µM [5] was 126%. It also gave an activity at 0.1 µM [6] of 42%, an activity at 0.1 µM [4] of 94% and an activity at 0.1 µM [5] of 44%. For the same compound, the activity at 0.3 µM [6] was 13%, the activity at 0.3 µM [4] was 33% and the activity at 0.3 µM [5] was 14%. For the same compound, the inhibition at 0.3 µM was ≥ 76% and the inhibition at 10 µM was ≥ 97%.
CSCCC(NC(=O)C(NC(=O)C(CC(C)C)CC(O)C(NC(=O)OC(C)(C)C)C(C)O)C(C)C)C(=O)NCc1ccc(F)cc1 [TLVM-9, [5S-(tert-butoxycarbonylamino)-4R,6R-dihydroxy-2R-(2-methylpropyl)heptanoyl]-L-valyl-L-methionine 4-fluorobenzylamide] was tested, and the activity at 0.3 µM [7] was ≤ 24%, the activity at 0.3 µM [8] was 2% and the activity at 0.3 µM [1] was 15%. The activity at 1 µM [2] was 8%, the activity at 1 µM [8] was 11% and the activity at 1 µM [1] was 8%. It also gave an activity at 3 µM [2] of 5%, an activity at 3 µM [8] of 37% and an activity at 3 µM [1] of 7%. The activity at 10 µM [2] was ≤ 3%, the activity at 10 µM [8] was 0% and the activity at 10 µM [1] was 3%. It also gave an activity at 0.03 µM [3] of 94%, an activity at 0.03 µM [4] of 97% and an activity at 0.03 µM [5] of 94%. For the same compound, the activity at 0.1 µM [6] was 32%, the activity at 0.1 µM [4] was 67% and the activity at 0.1 µM [5] was 33%. The activity at 0.3 µM [6] was 17%, the activity at 0.3 µM [4] was 49% and the activity at 0.3 µM [5] was 18%. The inhibition at 0.3 µM was ≥ 76% and the inhibition at 10 µM was ≥ 97%.
CSCCC(NC(=O)C(NC(=O)C(CC(C)C)CC(O)C(NC(=O)OC(C)(C)C)C(C)O)C(C)C)C(=O)NC(C)c1ccccc1 [TLVM-8, [5S-(tert-butoxycarbonylamino)-4R,6R-dihydroxy-2R-(2-methylpropyl)heptanoyl]-L-valyl-L-methionine (S)-α-methylbenzylamide] was tested, and the activity at 0.3 µM [8] was 7%, the activity at 0.3 µM [1] was 7% and the activity at 1 µM [2] was 1%. It also gave an activity at 1 µM [8] of 11%, an activity at 1 µM [1] of 1% and an activity at 3 µM [2] of 2%. It also gave an activity at 3 µM [8] of 61%, an activity at 3 µM [1] of 5% and an activity at 10 µM [8] of 0%. It also gave an activity at 10 µM [1] of 1%, an activity at 0.03 µM [3] of 53% and an activity at 0.03 µM [4] of 71%. The activity at 0.03 µM [5] was 54%, the activity at 0.1 µM [6] was 16% and the activity at 0.1 µM [4] was 52%. The activity at 0.1 µM [5] was 17%, the activity at 0.3 µM [6] was 7% and the activity at 0.3 µM [4] was 33%. The activity at 0.3 µM [5] was 8%, the inhibition at 0.3 µM was ≥ 76% and the inhibition at 10 µM was ≥ 97%.
